Biological target: Glucagon receptor (Homo sapiens, UniProt P47871)
Experiment: Antagonist activity at human glucagon receptor

Glucagon receptor, sequence (P47871 whole entry): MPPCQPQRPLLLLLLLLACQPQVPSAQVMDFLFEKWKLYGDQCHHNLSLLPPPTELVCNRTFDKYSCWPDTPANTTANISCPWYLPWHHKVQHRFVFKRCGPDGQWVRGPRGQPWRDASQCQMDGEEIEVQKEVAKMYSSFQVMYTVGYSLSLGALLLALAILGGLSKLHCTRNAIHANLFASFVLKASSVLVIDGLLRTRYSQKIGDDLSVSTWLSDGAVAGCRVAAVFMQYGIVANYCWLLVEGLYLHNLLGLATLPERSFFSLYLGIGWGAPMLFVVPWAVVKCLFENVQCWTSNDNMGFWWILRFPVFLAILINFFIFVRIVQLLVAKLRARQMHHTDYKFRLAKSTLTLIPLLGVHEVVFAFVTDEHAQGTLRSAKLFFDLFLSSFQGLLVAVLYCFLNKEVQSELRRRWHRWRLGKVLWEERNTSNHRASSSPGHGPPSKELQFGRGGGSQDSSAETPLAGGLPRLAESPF

SMILES | IC50 [nM]
Cc1cc(-c2ccc(F)cc2)c(-c2ccncc2)[nH]1 | 321
CSc1ccc(C2=NC(c3ccncc3)=C(c3ccc(F)cc3)C2)cc1 | 1230
Clc1ccc(-c2cc(-c3ccccc3Br)c(-c3ccncc3)[nH]2)cc1 | 1000
Fc1ccc(-c2cc[nH]c2-c2ccncc2)cc1 | 160
Fc1ccc(-c2cc(-c3ccc(Cl)cc3Cl)[nH]c2-c2ccncc2)cc1 | 421
Fc1ccc(-c2cc(-c3cccc(Cl)c3)[nH]c2-c2ccncc2)cc1 | 421
CCOc1ccccc1-c1cc(-c2ccc(Cl)cc2)[nH]c1-c1ccncc1 | 14200
COc1ccccc1-c1cc(-c2ccc(Cl)cc2)[nH]c1-c1ccncc1 | 2650
C=CCOc1ccccc1-c1cc(-c2ccc(Cl)cc2)[nH]c1-c1ccncc1 | 4740
Fc1ccc(-c2cc(C3CCCCC3)[nH]c2-c2ccncc2)cc1 | 180
Clc1ccc(-c2cc(-c3ccc(Cl)cc3)c(-c3ccncc3)[nH]2)cc1 | 160
CCCOc1ccccc1-c1cc(-c2ccc(Cl)cc2)[nH]c1-c1ccncc1 | 2840
CC(C)COc1ccccc1-c1cc(-c2ccc(Cl)cc2)[nH]c1-c1ccncc1 | 3770
C[S+]([O-])c1ccc(C2=NC(c3ccncc3)=C(c3ccc(F)cc3)C2)cc1 (stereo not drawn) | 671
COc1cccc(-c2cc(-c3ccc(Cl)cc3)[nH]c2-c2ccncc2)c1 | 421
CCCOc1ccc(Br)cc1-c1cc(-c2ccc(Cl)cc2)[nH]c1-c1ccncc1 | 1440
Clc1ccc(-c2cc(-c3cccc(Br)c3)c(-c3ccncc3)[nH]2)cc1 | 80.2
Clc1ccc(-c2cc(-c3ccccc3)c(-c3ccncc3)[nH]2)cc1 | 210
COc1ccc(-c2cc(-c3ccc(Cl)cc3)[nH]c2-c2ccncc2)cc1 | 1150
Clc1ccc(-c2cc(-c3ccc(Br)cc3)c(-c3ccncc3)[nH]2)cc1 | 301
Fc1ccc(-c2cc(-c3ccccc3)[nH]c2-c2ccncc2)cc1 | 802

The remaining lines, values ahead:

IC50 [nM] | SMILES
44.1 | CSc1ccc(-c2cc(-c3ccncc3)c(-c3ccc(F)cc3)[nH]2)cc1
340 | Fc1ccc(-c2cc(-c3ccc(F)cc3)c(-c3ccncc3)[nH]2)cc1
190 | Nc1ccc(-c2cc(-c3ccc(F)cc3)c(-c3ccncc3)[nH]2)cc1
2810 | COc1ccc(-c2cc(-c3ccc(F)cc3)c(-c3ccncc3)[nH]2)cc1
5.31 | C[S+]([O-])c1ccc(-c2cc(-c3ccncc3)c(-c3ccc(F)cc3)[nH]2)cc1 (stereo not drawn)
50 | N#Cc1ccc(-c2cc(-c3ccc(F)cc3)c(-c3ccncc3)[nH]2)cc1
1690 | Cc1ccc(-c2cc(-c3ccc(F)cc3)c(-c3ccncc3)[nH]2)cc1
1360 | CCc1ccc(-c2cc(-c3ccc(F)cc3)c(-c3ccncc3)[nH]2)cc1
90.2 | O=C(O)c1ccc(-c2cc(-c3ccc(F)cc3)c(-c3ccncc3)[nH]2)cc1
1400 | Fc1ccc(-c2cc(-c3ccc(Cl)cc3)[nH]c2-c2ccncc2)cc1
260 | CCOC(=O)c1ccc(-c2cc(-c3ccc(F)cc3)c(-c3ccncc3)[nH]2)cc1
50 | O=[N+]([O-])c1ccc(-c2cc(-c3ccc(F)cc3)c(-c3ccncc3)[nH]2)cc1
